Measurements reported in patent US9273055B2, “Tyrosine kinase inhibitors” (Chembridge Corporation, priority 2008, dated 2016).
Several values for one entry are separate records, joined by “and”; a condition that tells them apart may be missing. Equal entries are not always repeated. Where two headings read alike, the source gives them in different places.

Assays:
FLT3-ITD = molecular target: T1, FLT3-ITD (Homo sapiens, UniProt P36888, cells depend on it, form not given); assay: BaF3 stable clone growth (WST-1), FLT3-ITD; settings: read-out: BaF3 Stables IC50 ± SEE, FLT3-ITD
T1 sequence (P36888 with tags, fused parts or gaps INS600HVDFREYEYD): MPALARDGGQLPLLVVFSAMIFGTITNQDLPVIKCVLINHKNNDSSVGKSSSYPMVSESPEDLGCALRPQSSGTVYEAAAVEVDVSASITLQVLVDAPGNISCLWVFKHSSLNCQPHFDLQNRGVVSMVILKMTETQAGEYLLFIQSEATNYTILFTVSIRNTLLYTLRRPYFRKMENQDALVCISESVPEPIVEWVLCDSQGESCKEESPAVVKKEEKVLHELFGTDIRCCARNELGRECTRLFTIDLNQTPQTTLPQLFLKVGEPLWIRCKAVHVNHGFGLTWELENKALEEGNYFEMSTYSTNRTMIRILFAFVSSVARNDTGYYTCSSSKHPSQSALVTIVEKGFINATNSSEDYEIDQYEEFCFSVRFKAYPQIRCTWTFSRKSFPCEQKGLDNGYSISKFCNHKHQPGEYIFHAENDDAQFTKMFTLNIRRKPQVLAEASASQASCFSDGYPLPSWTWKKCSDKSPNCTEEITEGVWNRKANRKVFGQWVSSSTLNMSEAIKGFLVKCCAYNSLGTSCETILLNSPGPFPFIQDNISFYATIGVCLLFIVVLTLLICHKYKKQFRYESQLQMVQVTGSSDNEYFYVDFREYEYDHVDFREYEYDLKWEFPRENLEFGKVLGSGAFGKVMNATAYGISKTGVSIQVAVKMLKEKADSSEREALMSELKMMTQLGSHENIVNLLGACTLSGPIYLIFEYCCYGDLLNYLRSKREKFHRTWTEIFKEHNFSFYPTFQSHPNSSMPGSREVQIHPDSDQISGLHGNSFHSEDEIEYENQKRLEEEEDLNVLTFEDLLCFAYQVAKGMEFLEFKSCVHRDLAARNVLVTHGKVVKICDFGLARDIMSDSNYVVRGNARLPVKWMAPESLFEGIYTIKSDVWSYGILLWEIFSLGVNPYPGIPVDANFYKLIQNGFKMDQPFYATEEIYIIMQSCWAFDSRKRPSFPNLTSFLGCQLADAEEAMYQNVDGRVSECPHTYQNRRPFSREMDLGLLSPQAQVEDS

NPM-ALK C1156Y = NPM-ALK C1156Y (Homo sapiens, UniProt Q9UM73, C1156Y); assay: BaF3 stable clone growth (WST-1), NPM-ALK C1156Y; settings: BaF3 stables
NPM-ALK R1275Q = NPM-ALK R1275Q (Homo sapiens, UniProt Q9UM73, R1275Q); assay: BaF3 stable clone growth (WST-1), NPM-ALK R1275Q; settings: read-out: BaF3 Stables IC50 ± SEE, R1275Q; NPM-ALK construct
EML4-ALK C1156Y = EML4-ALK C1156Y (Homo sapiens, UniProt Q9UM73, C1156Y); assay: BaF3 stable clone growth (WST-1), EML4-ALK C1156Y; settings: BaF3 stables
[1] = Caco-2 cell permeation study; type: in vitro ADME; settings: human; for Papp A→B at 2 h, 10 μM / Papp B→A at 2 h, 10 μM: Caco-2, 10 μM; for Papp A→B at 2 h, 10 μM: apical pH 6.5, 2 h; for Papp B→A at 2 h, 10 μM: basolateral pH 7.4, 2 h
in vitro = settings: rat, pH 7.4
NB-1 neuroblastoma cells = assay: 3 day cell viability (WST-1), NB-1; type: cell-based; settings: 72 h, 3 days
[2] = Phase I microsome metabolic stability, rat; settings: pH 7.4
[3] = Phase I microsome metabolic stability, human; settings: pH 7.4
[4] = molecular target: hERG potassium channel current expressed in HEK293 cells (Homo sapiens, UniProt Q12809); assay: hERG automatic patch clamp (PatchXpress 7000A)
EML4-ALK R1275Q = EML4-ALK R1275Q (Homo sapiens, UniProt Q9UM73, R1275Q); assay: BaF3 stable clone growth (WST-1), EML4-ALK R1275Q; settings: read-out: BaF3 Stables IC50 ± SEE, R1275Q; EML4-ALK construct
ALK = molecular target: T2, ALK (Homo sapiens, UniProt Q9UM73); assay: In vitro kinase activity assay (LANCE TR-FRET), ALK; type: biochemical
T2 construct: purchased Invitrogen

TrkA = molecular target: T3, TrkA (Homo sapiens, UniProt P04629); assay: In vitro kinase activity assay (LANCE TR-FRET), TrkA; type: biochemical
T3 construct: purchased Invitrogen

cMET = molecular target: T4, cMET (Homo sapiens, UniProt P08581); assay: In vitro kinase activity assay (LANCE TR-FRET), cMET; type: biochemical
T4 construct: purchased Invitrogen

K299 lymphoma cells = assay: 3 day cell viability (WST-1), K299; type: cell-based; settings: Homo sapiens, 72 h, 3 days
[5] = Phase I microsome metabolic stability, mouse; type: in vitro ADME; settings: 1.0 mg/ml microsomes
Caco-2 monolayers = assay: Caco-2 cell permeation study; type: in vitro ADME; settings: for Papp A to B: apical pH 6.5, 2 h
[6] = Rat pharmacokinetics / bioavailability; type: in vivo; settings: for AUC(0-t): male, Sprague-Dawley, plasma, read-out: AUC0-1440 (converted)
U937 lymphoma cells = assay: 3 day cell viability (WST-1), U937; type: cell-based; settings: 3 days
[7] = Guinea pig pharmacokinetics; type: in vivo; settings: 10 mg/kg PO
Mouse pharmacokinetics = type: in vivo; settings: 10 mg/kg SC
Dog pharmacokinetics = type: in vivo, beagle dog; settings: 5 mg/kg PO
[8] = positive control run with the compound of that line, 10 μM

Chain of EML4-ALK C1156Y (Q9UM73 1060-1620 C1156Y limits assumed): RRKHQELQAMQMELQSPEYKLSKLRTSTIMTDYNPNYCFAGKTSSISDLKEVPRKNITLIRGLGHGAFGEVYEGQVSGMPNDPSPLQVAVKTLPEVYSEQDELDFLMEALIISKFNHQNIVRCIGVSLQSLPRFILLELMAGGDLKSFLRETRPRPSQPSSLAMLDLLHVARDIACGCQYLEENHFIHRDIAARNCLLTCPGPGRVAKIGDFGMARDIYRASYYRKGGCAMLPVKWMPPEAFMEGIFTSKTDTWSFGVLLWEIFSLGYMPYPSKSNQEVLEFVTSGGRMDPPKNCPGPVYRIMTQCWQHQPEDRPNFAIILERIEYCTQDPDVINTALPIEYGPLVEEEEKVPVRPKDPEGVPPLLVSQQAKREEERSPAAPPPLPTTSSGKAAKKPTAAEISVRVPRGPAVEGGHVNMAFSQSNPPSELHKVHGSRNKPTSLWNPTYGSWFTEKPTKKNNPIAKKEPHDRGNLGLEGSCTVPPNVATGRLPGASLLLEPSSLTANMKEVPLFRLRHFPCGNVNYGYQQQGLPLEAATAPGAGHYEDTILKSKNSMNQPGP
Chain of hERG potassium channel current expressed in HEK293 cells (Q12809 whole entry): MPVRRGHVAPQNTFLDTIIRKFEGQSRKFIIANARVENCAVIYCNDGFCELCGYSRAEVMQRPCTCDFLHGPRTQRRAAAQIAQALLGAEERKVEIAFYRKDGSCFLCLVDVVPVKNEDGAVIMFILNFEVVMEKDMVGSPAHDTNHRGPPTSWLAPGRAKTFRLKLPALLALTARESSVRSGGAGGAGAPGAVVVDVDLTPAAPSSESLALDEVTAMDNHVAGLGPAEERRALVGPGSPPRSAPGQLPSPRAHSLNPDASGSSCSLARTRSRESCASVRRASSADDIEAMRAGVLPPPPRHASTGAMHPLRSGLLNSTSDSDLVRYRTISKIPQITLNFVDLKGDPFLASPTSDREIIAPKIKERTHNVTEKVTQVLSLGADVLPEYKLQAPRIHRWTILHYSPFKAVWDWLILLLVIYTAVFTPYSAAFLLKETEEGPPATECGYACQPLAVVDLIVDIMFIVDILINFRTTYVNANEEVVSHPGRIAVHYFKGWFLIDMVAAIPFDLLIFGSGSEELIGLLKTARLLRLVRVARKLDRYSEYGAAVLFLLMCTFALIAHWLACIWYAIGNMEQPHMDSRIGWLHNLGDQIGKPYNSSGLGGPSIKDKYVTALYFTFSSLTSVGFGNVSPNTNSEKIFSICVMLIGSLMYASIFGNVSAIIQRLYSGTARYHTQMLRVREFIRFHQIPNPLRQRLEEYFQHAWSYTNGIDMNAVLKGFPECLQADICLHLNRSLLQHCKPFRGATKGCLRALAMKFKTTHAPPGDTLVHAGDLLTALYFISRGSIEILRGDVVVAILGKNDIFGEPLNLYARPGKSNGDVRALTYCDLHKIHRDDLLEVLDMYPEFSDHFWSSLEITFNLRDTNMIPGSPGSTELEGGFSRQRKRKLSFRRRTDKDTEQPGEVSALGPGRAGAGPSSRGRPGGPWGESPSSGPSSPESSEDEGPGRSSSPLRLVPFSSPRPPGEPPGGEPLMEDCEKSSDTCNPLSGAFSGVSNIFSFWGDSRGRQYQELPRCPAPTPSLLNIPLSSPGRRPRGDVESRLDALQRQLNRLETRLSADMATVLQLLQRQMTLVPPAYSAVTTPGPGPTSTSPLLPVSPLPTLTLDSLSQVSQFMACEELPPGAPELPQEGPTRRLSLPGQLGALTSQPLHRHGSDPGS
T2 sequence (Q9UM73 19-1620): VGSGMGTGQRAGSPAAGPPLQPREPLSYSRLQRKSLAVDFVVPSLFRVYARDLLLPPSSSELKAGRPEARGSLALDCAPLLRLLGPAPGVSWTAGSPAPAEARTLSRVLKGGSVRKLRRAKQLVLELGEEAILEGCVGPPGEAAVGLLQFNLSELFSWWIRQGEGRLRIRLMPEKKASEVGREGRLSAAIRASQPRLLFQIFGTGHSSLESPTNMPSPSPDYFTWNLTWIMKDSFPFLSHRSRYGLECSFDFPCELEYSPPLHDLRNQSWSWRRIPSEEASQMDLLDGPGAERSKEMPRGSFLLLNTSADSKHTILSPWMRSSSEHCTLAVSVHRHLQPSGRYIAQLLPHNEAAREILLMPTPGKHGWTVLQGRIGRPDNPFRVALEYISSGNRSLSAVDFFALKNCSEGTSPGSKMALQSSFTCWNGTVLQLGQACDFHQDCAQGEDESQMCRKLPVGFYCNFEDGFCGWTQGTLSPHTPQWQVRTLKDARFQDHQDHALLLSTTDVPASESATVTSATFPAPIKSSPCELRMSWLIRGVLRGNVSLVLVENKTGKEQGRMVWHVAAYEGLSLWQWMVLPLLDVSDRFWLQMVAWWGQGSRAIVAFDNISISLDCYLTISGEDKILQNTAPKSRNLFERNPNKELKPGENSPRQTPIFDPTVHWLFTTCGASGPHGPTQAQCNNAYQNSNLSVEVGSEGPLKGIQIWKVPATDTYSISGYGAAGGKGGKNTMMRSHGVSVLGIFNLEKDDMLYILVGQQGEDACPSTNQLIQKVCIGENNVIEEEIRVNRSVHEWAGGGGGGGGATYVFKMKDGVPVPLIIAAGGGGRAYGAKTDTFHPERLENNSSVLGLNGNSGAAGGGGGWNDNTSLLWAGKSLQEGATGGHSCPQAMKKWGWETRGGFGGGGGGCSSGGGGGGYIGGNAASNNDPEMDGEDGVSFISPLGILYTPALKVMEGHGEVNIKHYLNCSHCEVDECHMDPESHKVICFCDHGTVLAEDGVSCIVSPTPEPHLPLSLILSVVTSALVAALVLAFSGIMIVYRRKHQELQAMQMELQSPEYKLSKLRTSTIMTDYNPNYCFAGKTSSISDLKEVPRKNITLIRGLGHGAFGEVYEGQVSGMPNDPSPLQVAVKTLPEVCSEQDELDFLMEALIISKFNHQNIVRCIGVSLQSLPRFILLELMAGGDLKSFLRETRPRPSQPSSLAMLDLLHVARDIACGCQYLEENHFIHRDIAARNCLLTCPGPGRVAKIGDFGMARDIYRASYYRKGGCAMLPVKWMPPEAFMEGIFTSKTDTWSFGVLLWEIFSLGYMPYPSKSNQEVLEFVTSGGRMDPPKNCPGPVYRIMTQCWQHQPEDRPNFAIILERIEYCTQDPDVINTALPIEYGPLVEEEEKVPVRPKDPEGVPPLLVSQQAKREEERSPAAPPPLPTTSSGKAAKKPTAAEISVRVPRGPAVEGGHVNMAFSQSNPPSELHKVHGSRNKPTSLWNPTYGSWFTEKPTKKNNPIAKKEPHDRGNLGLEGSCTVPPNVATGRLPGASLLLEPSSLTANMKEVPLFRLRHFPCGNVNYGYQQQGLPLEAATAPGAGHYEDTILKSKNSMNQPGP
Chain of EML4-ALK R1275Q (Q9UM73 1060-1620 R1275Q limits assumed): as the sequence (Q9UM73 1060-1620 C1156Y limits assumed) above, with Y97C, R216Q counted along it
Chain of NPM-ALK R1275Q (Q9UM73 1060-1620 R1275Q limits assumed): as the sequence (Q9UM73 1060-1620 C1156Y limits assumed) above, with Y97C, R216Q counted along it
T4 sequence (P08581 25-1390): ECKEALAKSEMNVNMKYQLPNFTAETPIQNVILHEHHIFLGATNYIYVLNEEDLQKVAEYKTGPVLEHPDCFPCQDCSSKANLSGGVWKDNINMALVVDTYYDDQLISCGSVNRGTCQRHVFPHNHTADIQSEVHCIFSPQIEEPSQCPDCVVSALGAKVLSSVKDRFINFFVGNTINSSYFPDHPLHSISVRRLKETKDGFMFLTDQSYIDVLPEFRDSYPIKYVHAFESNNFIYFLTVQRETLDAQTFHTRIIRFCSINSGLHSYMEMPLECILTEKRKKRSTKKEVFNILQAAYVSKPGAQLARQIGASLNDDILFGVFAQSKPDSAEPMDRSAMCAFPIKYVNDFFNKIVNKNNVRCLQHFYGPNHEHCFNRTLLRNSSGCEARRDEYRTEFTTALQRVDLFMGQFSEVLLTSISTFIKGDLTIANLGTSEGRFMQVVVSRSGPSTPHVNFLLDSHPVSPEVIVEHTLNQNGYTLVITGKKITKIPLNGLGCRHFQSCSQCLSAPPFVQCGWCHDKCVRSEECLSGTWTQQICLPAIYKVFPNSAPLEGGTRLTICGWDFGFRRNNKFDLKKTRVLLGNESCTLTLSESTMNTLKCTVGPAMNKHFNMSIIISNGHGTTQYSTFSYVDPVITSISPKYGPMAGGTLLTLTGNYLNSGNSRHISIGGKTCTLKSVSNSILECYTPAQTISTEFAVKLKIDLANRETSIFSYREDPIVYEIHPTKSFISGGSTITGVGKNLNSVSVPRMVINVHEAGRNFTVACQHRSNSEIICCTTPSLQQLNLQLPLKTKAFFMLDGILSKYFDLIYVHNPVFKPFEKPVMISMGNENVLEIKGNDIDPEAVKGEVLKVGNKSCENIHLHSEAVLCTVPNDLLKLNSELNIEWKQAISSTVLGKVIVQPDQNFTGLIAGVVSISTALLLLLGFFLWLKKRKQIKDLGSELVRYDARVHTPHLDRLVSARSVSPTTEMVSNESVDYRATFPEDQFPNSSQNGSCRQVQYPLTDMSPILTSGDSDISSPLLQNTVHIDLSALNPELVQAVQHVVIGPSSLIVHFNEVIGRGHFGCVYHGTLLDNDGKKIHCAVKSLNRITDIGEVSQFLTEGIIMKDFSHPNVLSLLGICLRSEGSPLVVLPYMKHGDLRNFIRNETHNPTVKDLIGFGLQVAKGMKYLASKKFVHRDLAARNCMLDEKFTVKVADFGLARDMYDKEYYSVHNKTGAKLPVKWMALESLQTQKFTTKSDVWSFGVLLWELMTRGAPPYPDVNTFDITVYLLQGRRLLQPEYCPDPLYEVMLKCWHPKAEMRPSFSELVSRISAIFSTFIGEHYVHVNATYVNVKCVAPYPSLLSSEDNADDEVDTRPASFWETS
Chain of NPM-ALK C1156Y (Q9UM73 1060-1620 C1156Y limits assumed): as the sequence (Q9UM73 1060-1620 C1156Y limits assumed) above

2-(4-(1-(5-Fluoro-2-methylphenyl)propan-2-ylamino)-2-oxo-1,2-dihydropyridin-3-yl)-6-(2-(dimethylamino)ethyl)-6,7-dihydroimidazo[4,5-f]isoindole-5(1H)-one [Compound 45]
GI50 (FLT3-ITD): > 1000 nM
reduced potency, C1156Y compared to NPM-ALK parent construct (NPM-ALK C1156Y): 1.6 fold
IC50 (NPM-ALK R1275Q): 81 ± 4.2 nM
reduced potency, C1156Y compared to EML4-ALK parent construct (EML4-ALK C1156Y): 1.3 fold

C[C@@H](Cc1cc(F)ccc1F)Nc1cc[nH]c(=O)c1-c1nc2cc3c(cc2[nH]1)C(=O)N(C)C3=O (stereo in doubt) [Compound 32, 2-(4-(1-(2,5-Difluorophenyl)propan-2-ylamino)-2-oxo-1,2-dihydropyridin-3-yl)-6-methylimidazo[4,5-f]isoindole-5,7(1H,6H)-dione]
Papp A→B at 2 h, 10 μM [1]: > 0.2 ×10⁻⁶ cm/s
microsomal CLint at 0.5 μM (in vitro): < 5 µL/min/mg

C[C@@H](Cc1c(F)c(F)cc(F)c1F)Nc1cc[nH]c(=O)c1-c1nc2cc3c(cc2[nH]1)CN(C1CCN(C)CC1)C3=O [Compound 4, (S)-6-(1-Methylpiperidin-4-yl)-2-(2-oxo-4-(1-(2,3,5,6-tetrafluorophenyl)propan-2-ylamino)-1,2-dihydropyridin-3-yl)-6,7-dihydroimidazo[4,5-f]isoindol-5(3H)-one]
IC50 (NB-1 neuroblastoma cells): 257 nM
Papp A→B at 2 h, 10 μM [1]: < 0.2 ×10⁻⁶ cm/s
Papp B→A at 2 h, 10 μM [1]: 20 ×10⁻⁶ cm/s
half-life at 0.5 μM [2]: > 120 min
microsomal CLint at 0.5 μM [2]: < 5.8 µL/min/mg
half-life at 0.5 μM [3]: > 120 min
microsomal CLint at 0.5 μM [3]: < 5.8 µL/min/mg
IC50 [4]: 2.72 µM
reduced potency, C1156Y compared to EML4-ALK parent construct (EML4-ALK C1156Y): 2.0 fold
IC50 (EML4-ALK R1275Q): 2885 ± 20 nM

C[C@@H](Cc1c(F)c(F)cc(F)c1F)Nc1cc[nH]c(=O)c1-c1nc2cc3c(cc2[nH]1)C(=O)N(c1cccnc1)C3O (stereo partly drawn) [Compound 13, 7-Hydroxy-2-(2-oxo-4-(((S)-1-(2,3,5,6-tetrafluorophenyl)propan-2-yl)amino)-1,2-dihydropyridin-3-yl)-6-(pyridin-3-yl)-6,7-dihydroimidazo[4,5-f]isoindol-5(1H)-one]
IC50 (ALK): 15.2 nM
IC50 (TrkA): 6.36 nM

C[C@@H](Cc1c(F)c(F)cc(F)c1F)Nc1cc[nH]c(=O)c1-c1nc2cc3c(cc2[nH]1)C(=O)N(c1ccc(F)nc1)C3=O [Compound 15, (S)-6-(6-Fluoropyridin-3-yl)-2-(2-oxo-4-((1-(2,3,5,6-tetrafluorophenyl)propan-2-yl)amino)-1,2-dihydropyridin-3-yl)imidazo[4,5-f]isoindole-5,7(1H,6H)-dione]
IC50 (cMET): > 10 µM
IC50 (K299 lymphoma cells): > 10 µM
Papp A→B at 2 h, 10 μM [1]: < 0.2 ×10⁻⁶ cm/s
Papp B→A at 2 h, 10 μM [1]: < 0.2 ×10⁻⁶ cm/s

CC(Cc1cc(F)ccc1F)Nc1cc[nH]c(=O)c1-c1nc2cc3c(cc2[nH]1)CN(C)C3=O (centres unmarked) [Compound 33, 2-(4-(1-(2,5-Difluorophenyl)propan-2-ylamino)-2-oxo-1,2-dihydropyridin-3-yl)-6-methyl-6,7-dihydroimidazo[4,5-f]isoindol-5(1H)-one]
Mouse LM-P1 Half-life ([5]; Phase I only, 0.5 μM): 54.06 min
half-life at 0.5 μM ([5]; mouse, liver microsomes, pH 7.4, Phase I only, read-out: Mouse LM-P1 Half-life): 12.8 min
Papp A to B (Caco-2 monolayers; Caco-2, 10 μM): 1.7 10−6 cm/sec
Papp B to A (Caco-2 monolayers; Caco-2, 10 μM, basolateral pH 7.4, 2 h): 1.4 10−6 cm/sec
Efflux Ratio (Caco-2 monolayers; Caco-2, B to A / A to B): 0.5

CC(Cc1cc(F)ccc1F)Nc1cc[nH]c(=O)c1-c1nc2cc3c(cc2[nH]1)C(=O)N(CC(O)CO)C3=O [Compound 34, 2-(4-(1-(2,5-Difluorophenyl)propan-2-ylamino)-2-oxo-1,2-dihydropyridin-3-yl)-6-(R)-2,3-dihydroxypropyl)imidazo[4,5-f]isoindole-5,7(1H,6H)-dione]
Papp A→B at 2 h, 10 μM [1]: < 0.2 ×10⁻⁶ cm/s
Papp A to B (Caco-2 monolayers; Caco-2, 10 μM): >0.2 10−6 cm/sec

CC(Cc1cc(F)ccc1F)Nc1cc[nH]c(=O)c1-c1nc2cc3c(cc2[nH]1)CNC3=O (centres unmarked) [Compound 53]
F ([6]; 10 mg/kg P.O.): 0.402%
AUC(0-t) ([6]; iv, 10 mg/kg I.V.): 8850 ng·h/mL
AUC(0-t) ([6]; po, 10 mg/kg P.O.): 35.5 ng·h/mL
half-life at 0.5 μM (in vitro): 8.88 min

CC(C)NCC(O)COc1cccc2ccccc12 (centres unmarked) [Propranolol, reference compound]
recovery at 2 h, 10 μM ([1]; Caco-2, Pos Ctrl: Propranolol Recovery, positive control run with the compound of that line, 10 μM): 44%
Papp at 2 h, 10 μM ([1]; Caco-2, positive control run with the compound of that line, 10 μM): 14 ×10⁻⁶ cm/s
Pos Ctrl (Papp): Propranolol Papp (Caco-2 monolayers; [8]): 13.7 and 14.3 and 11.8
Pos Ctrl: Propranolol Recovery (Caco-2 monolayers; [8]): 63% and 26%

(S)-6-(2-(Dimethylamino)ethyl)-2-(2-oxo-4-((1-(2,3,5,6-tetrafluorophenyl)propan-2-yl)amino)-1,2-dihydropyridin-3-yl)-6,7-dihydroimidazo[4,5-f]isoindol-5(3H)-one [Compound 1]
IC50 (U937 lymphoma cells): 1600 nM
AUC0-1440 ([6]; 10 mg/kg I.V.): 329 µg·min/mL
CL ([6]; 10 mg/kg I.V.): 25.5 mL/min/kg
MRT ([6]; 10 mg/kg I.V.): 1362 min
T1/2 ([6]; 10 mg/kg I.V.): 1323 min
Vss ([6]; 10 mg/kg I.V.): 23.9 L/kg
AUC0-1440 ([6]; 10 mg/kg P.O.): 0.943 µg·min/mL
Cmax ([6]; 10 mg/kg P.O.): 2.21 ng/mL
F ([6]; 10 mg/kg P.O.): 0.287%
Tmax ([6]; 10 mg/kg P.O.): 113 min
F [7]: 1%
F (Mouse pharmacokinetics): 30%
Compound 1 (parameter cell as printed) (Dog pharmacokinetics): 17.2 µg·min/mL
F (Dog pharmacokinetics): 12%
GI50 (FLT3-ITD): > 3000 nM
IC50 ([4]; read-out: hERG inhib. IC50, HEK293, hERG tail current): 6.25 µM
